Source: patent US12139520B2 (priority 2020, dated 2024)
Numbered stars: 1 amine (or outer) side, 2 acyl side, 3 side chain; on linkers, the order of the positions; unused ones are H or OH. Bridge positions count the residues as written; N and C are the ends. Square brackets hold non-standard residues; d marks the D form. Peptide text beside a SMILES is read from it. * marks the point of attachment. C20 diacid = O=C(O)CCCCCCCCCCCCCCCCCCC(=O)*; γGlu = O=C(O)[C@H](CCC(=O)[*:2])N[*:1]; Hyp = O=C(O)[C@@H]1C[C@@H](O)CN1

What was measured:
hAM1 receptor = hAM1 receptor (Homo sapiens, UniProt O60895+Q16602); assay: cAMP assay for in vitro receptor activation, hAM1-R; type: cell-based; conditions: cAMP assay, hAM1 receptor; read-out: hAM1R EC50
Experimental: General Protocols for cAMP Assays for Measuring In Vitro Receptor Activation
Cells stably overexpressing the hAM1 receptor were obtained from Ogeda (now Astellas Pharma), sub-cloned and a monoclonal cell-line with an appropriate assay-window was expanded, aliquoted and frozen. An aliquot was thawed and plated in DPBS with 0.05% casein and 0.5 mM IBMX as 8000 cells/well in a 384-well format.

hAMY3 receptor = target: T1, hAMY3 receptor (Homo sapiens, UniProt O60896+P30988); assay: cAMP assay for in vitro receptor activation, hAMY3-R; type: cell-based; conditions: cAMP assay, hAMY3 receptor; read-out: hAMY3R EC50
T1 sequence (P30988 25-474): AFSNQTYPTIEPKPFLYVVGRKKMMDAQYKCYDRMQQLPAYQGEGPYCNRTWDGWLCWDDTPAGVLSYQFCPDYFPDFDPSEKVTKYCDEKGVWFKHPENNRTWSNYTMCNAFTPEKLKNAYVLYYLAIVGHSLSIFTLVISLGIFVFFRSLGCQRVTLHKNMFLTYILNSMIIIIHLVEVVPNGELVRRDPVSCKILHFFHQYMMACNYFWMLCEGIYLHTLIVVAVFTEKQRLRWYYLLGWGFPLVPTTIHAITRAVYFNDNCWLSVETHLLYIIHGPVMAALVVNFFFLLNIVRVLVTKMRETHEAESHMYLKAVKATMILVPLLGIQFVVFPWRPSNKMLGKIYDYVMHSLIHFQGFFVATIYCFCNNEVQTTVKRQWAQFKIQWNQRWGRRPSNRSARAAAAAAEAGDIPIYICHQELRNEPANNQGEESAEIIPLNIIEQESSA
T1 sequence (O60896 24-148 partner): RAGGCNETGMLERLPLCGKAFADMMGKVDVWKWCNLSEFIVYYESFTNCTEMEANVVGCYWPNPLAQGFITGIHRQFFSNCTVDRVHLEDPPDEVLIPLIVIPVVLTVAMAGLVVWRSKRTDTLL
Procedure, shortened: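 Monoclonal cell line stably overexpressing hAMY3 receptor, plated in DPBS with 0.05% casein and 0.5 mM IBMX, was stimulated with graded compound doses for 30 min at room temperature. cAMP accumulation was read by time-resolved FRET one hour after adding detection reagents.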

Sequence of hAM1 receptor (Q16602 23-461): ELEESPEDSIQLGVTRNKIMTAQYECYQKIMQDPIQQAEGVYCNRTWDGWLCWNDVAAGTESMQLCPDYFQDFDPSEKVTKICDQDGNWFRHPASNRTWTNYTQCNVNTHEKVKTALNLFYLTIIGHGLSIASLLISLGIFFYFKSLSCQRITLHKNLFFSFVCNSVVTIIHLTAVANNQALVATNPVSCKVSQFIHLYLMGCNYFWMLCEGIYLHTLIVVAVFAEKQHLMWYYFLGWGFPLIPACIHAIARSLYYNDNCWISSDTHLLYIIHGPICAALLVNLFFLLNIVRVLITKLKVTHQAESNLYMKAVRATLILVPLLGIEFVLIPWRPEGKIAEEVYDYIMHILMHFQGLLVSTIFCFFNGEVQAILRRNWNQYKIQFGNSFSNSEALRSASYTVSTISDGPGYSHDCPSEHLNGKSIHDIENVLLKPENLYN
Sequence of hAM1 receptor (O60895 43-175 partner): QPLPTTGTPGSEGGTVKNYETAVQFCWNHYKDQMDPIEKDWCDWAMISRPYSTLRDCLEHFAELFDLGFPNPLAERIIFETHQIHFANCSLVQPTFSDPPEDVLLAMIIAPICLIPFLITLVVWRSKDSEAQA

| SMILES | EC50 (hAM1 receptor) [µM] | EC50 (hAMY3 receptor) [nM] |
| --- | --- | --- |
| CC[C@H](C)[C@H](NC(=O)[C@H](CCC(N)=O)NC(=O)[C@H](Cc1c[nH]cn1)NC(=O)[C@H](C)NC(=O)[C@H](CC(C)C)NC(=O)[C@H](CCCNC(=N)N)NC(=O)[C@H](CCC(N)=O)NC(=O)[C@@H](NC(=O)[C@@H](NC(=O)[C@@H]1CSSC[C@H](NC(=O)[C@H](CCCCN)NC(=O)CC[C@H](NC(=O)CCCCCCCCCCCCCCCCCCC(=O)O)C(=O)O)C(=O)N[C@@H](CC(N)=O)C(=O)N[C@@H]([C@@H](C)O)C(=O)N[C@@H](C)C(=O)N[C@@H]([C@@H](C)O)C(=O)N1)[C@@H](C)O)C(C)C)C(=O)N[C@@H](Cc1ccc(O)cc1)C(=O)N[C@@H](CCC(N)=O)C(=O)N[C@@H](Cc1ccccc1)C(=O)N[C@@H](Cc1ccc(O)cc1)C(=O)N[C@@H](CC(=O)O)C(=O)N[C@@H](CCCCN)C(=O)N[C@@H](CC(=O)O)C(=O)N[C@@H](CCCCN)C(=O)N[C@@H](CC(=O)O)C(=O)N[C@@H](CC(N)=O)C(=O)N[C@H](C(=O)N[C@@H](C)C(=O)N1CCC[C@H]1C(=O)N1CCC[C@H]1C(=O)N[C@H](C(=O)N[C@@H](CC(N)=O)C(=O)N[C@H](C(=O)NCC(=O)N[C@@H](CO)C(=O)N[C@@H](CC(N)=O)C(=O)NCC(=O)N1C[C@H](O)C[C@H]1C(N)=O)C(C)C)[C@@H](C)O)C(C)C [compound 104] ({C20 diacid-γGlu}-KCNTATCTVQRLAHQIYQFYDKDKDNVAPPTNVGSNG[Hyp]-NH2; disulfide 2-7) | > 5 | 0.018 |
| CC[C@H](C)[C@H](NC(=O)[C@H](CCC(N)=O)NC(=O)[C@H](CC(=O)O)NC(=O)[C@H](C)NC(=O)[C@H](CC(C)C)NC(=O)[C@H](CCCNC(=N)N)NC(=O)[C@H](CC(N)=O)NC(=O)[C@@H](NC(=O)[C@@H](NC(=O)[C@@H]1CSSC[C@H](NC(=O)[C@@H](N)CCCNC(=N)N)C(=O)N[C@@H](CC(N)=O)C(=O)N[C@@H](C)C(=O)N[C@@H](CO)C(=O)N[C@@H]([C@@H](C)O)C(=O)N1)[C@@H](C)O)C(C)C)C(=O)N[C@H](C(=O)N[C@@H](CCC(N)=O)C(=O)N[C@@H](Cc1ccccc1)C(=O)N[C@@H](CO)C(=O)N[C@@H](CC(N)=O)C(=O)N[C@@H](CCCCN)C(=O)N[C@@H](CC(=O)O)C(=O)N[C@@H](CCCCN)C(=O)N[C@@H](C)C(=O)N[C@@H](CCC(N)=O)C(=O)N[C@H](C(=O)N[C@@H](CO)C(=O)N1CCC[C@H]1C(=O)N1CCC[C@H]1C(=O)N[C@H](C(=O)N[C@@H](CCC(=O)O)C(=O)N[C@H](C(=O)NCC(=O)N1CCC[C@H]1C(=O)N[C@@H](CC(N)=O)C(=O)N[C@@H](CO)C(=O)N1C[C@H](O)C[C@H]1C(N)=O)C(C)C)[C@@H](C)O)C(C)C)[C@@H](C)O [compound 9] (H-RCNASTCTVNRLADQITQFSNKDKAQVSPPTEVGPNS[Hyp]-NH2; disulfide 2-7; N-terminus assumed) | > 5 | 0.006 |
| CC[C@H](C)[C@H](NC(=O)[C@H](C)NC(=O)CNC(=O)[C@H](Cc1ccccc1)NC(=O)[C@H](CC(N)=O)NC(=O)[C@H](CC(N)=O)NC(=O)[C@H](CO)NC(=O)[C@H](CO)NC(=O)[C@H](Cc1c[nH]cn1)NC(=O)[C@@H](NC(=O)[C@H](CC(C)C)NC(=O)[C@H](Cc1ccccc1)NC(=O)[C@H](CC(N)=O)NC(=O)[C@H](C)NC(=O)[C@H](CC(C)C)NC(=O)[C@H](CCCNC(=N)N)NC(=O)[C@H](CCC(N)=O)NC(=O)[C@@H](NC(=O)[C@H](C)NC(=O)[C@@H]1CSSC[C@H](NC(=O)[C@@H](N)CCCCN)C(=O)N[C@@H](CC(N)=O)C(=O)N[C@@H]([C@@H](C)O)C(=O)N[C@@H](C)C(=O)N[C@@H]([C@@H](C)O)C(=O)N1)[C@@H](C)O)C(C)C)C(=O)N[C@@H](CC(C)C)C(=O)N[C@@H](CO)C(=O)N[C@@H](CO)C(=O)N[C@H](C(=O)N[C@@H](CCCCN)C(=O)N[C@H](C(=O)NCC(=O)N[C@@H](CO)C(=O)N[C@@H](CC(N)=O)C(=O)N[C@H](C(=O)N[C@@H](Cc1ccc(O)cc1)C(N)=O)[C@@H](C)O)C(C)C)[C@@H](C)O [compound 58] | > 5 | 0.012 |
| CC[C@H](C)[C@H](NC(=O)[C@H](CCC(N)=O)NC(=O)[C@H](CCC(=O)O)NC(=O)[C@H](C)NC(=O)[C@H](CC(C)C)NC(=O)[C@H](CCCNC(=N)N)NC(=O)[C@H](CCC(N)=O)NC(=O)[C@@H](NC(=O)[C@@H](NC(=O)[C@@H]1CSSC[C@H](NC(=O)[C@H](CCCCN)NC(=O)CC[C@H](NC(=O)CCCCCCCCCCCCCCCCCCC(=O)O)C(=O)O)C(=O)N[C@@H](CC(N)=O)C(=O)N[C@@H]([C@@H](C)O)C(=O)N[C@@H](C)C(=O)N[C@@H]([C@@H](C)O)C(=O)N1)[C@@H](C)O)C(C)C)C(=O)N[C@@H](Cc1ccc(O)cc1)C(=O)N[C@@H](CCC(N)=O)C(=O)N[C@@H](Cc1ccccc1)C(=O)N[C@H](C(=O)N[C@@H](CC(=O)O)C(=O)N[C@@H](CCCCN)C(=O)N[C@@H](CC(=O)O)C(=O)N[C@@H](CCCCN)C(=O)N[C@@H](CC(=O)O)C(=O)N[C@@H](CC(N)=O)C(=O)N[C@H](C(=O)N[C@@H](C)C(=O)N1CCC[C@H]1C(=O)N1CCC[C@H]1C(=O)N[C@H](C(=O)N[C@@H](CC(N)=O)C(=O)N[C@H](C(=O)NCC(=O)N[C@@H](CO)C(=O)N[C@@H](CC(N)=O)C(=O)NCC(=O)N1C[C@H](O)C[C@H]1C(N)=O)C(C)C)[C@@H](C)O)C(C)C)[C@@H](C)O [compound 51] ({C20 diacid-γGlu}-KCNTATCTVQRLAEQIYQFTDKDKDNVAPPTNVGSNG[Hyp]-NH2; disulfide 2-7) | > 5 | 0.011 |
| CC[C@H](C)[C@H](NC(=O)[C@H](CCC(N)=O)NC(=O)[C@H](Cc1c[nH]cn1)NC(=O)[C@H](C)NC(=O)[C@H](CC(C)C)NC(=O)[C@H](CCCNC(=N)N)NC(=O)[C@@H](NC(=O)[C@@H](NC(=O)[C@@H](NC(=O)[C@@H]1CSSC[C@H](NC(=O)[C@H](CCCCN)NC(=O)CC[C@H](NC(=O)CCCCCCCCCCCCCCCCCCC(=O)O)C(=O)O)C(=O)N[C@@H](CC(N)=O)C(=O)N[C@@H]([C@@H](C)O)C(=O)N[C@@H](C)C(=O)N[C@@H]([C@@H](C)O)C(=O)N1)[C@@H](C)O)C(C)C)C(C)C)C(=O)N[C@@H](Cc1ccc(O)cc1)C(=O)N[C@@H](CCC(N)=O)C(=O)N[C@@H](Cc1ccccc1)C(=O)N[C@H](C(=O)N[C@@H](CC(=O)O)C(=O)N[C@@H](CCCCN)C(=O)N[C@@H](CC(=O)O)C(=O)N[C@@H](CCCCN)C(=O)N[C@@H](CC(=O)O)C(=O)N[C@@H](CC(N)=O)C(=O)N[C@H](C(=O)N[C@@H](C)C(=O)N1CCC[C@H]1C(=O)N1CCC[C@H]1C(=O)N[C@H](C(=O)N[C@@H](CC(N)=O)C(=O)N[C@H](C(=O)NCC(=O)N[C@@H](CO)C(=O)N[C@@H](CC(N)=O)C(=O)NCC(=O)N1C[C@H](O)C[C@H]1C(N)=O)C(C)C)[C@@H](C)O)C(C)C)[C@@H](C)O [compound 103] ({C20 diacid-γGlu}-KCNTATCTVVRLAHQIYQFTDKDKDNVAPPTNVGSNG[Hyp]-NH2; disulfide 2-7) | > 5 | 0.018 |
| CC[C@H](C)[C@H](NC(=O)[C@H](C)NC(=O)CNC(=O)[C@H](Cc1ccccc1)NC(=O)[C@H](CC(N)=O)NC(=O)[C@H](CC(N)=O)NC(=O)[C@H](CO)NC(=O)[C@H](CO)NC(=O)[C@H](Cc1c[nH]cn1)NC(=O)[C@@H](NC(=O)[C@H](CC(C)C)NC(=O)[C@H](Cc1ccccc1)NC(=O)[C@H](CC(N)=O)NC(=O)[C@H](C)NC(=O)[C@H](CC(C)C)NC(=O)[C@H](CCCNC(=N)N)NC(=O)[C@H](CCC(N)=O)NC(=O)[C@@H](NC(=O)[C@H](C)NC(=O)[C@@H]1CSSC[C@H](NC(=O)[C@@H](N)CCCCN)C(=O)N[C@@H](CC(N)=O)C(=O)N[C@@H]([C@@H](C)O)C(=O)N[C@@H](C)C(=O)N[C@@H]([C@@H](C)O)C(=O)N1)[C@@H](C)O)C(C)C)C(=O)N[C@@H](CC(C)C)C(=O)N1CCC[C@H]1C(=O)N[C@@H](CO)C(=O)N[C@H](C(=O)N[C@@H](CCCCN)C(=O)N[C@H](C(=O)NCC(=O)N1CCC[C@H]1C(=O)N[C@@H](CC(N)=O)C(=O)NCC(=O)N[C@@H](Cc1ccc(O)cc1)C(N)=O)[C@@H](C)CC)[C@@H](C)O [compound 162] (H-KCNTATCATQRLANFLVHSSNNFGAILPSTKIGPNGY-NH2; disulfide 2-7; N-terminus assumed) | > 5 | 0.051 |
